# Source: patent EP0596725A2, “Drug resistance-conferring protein, antibodies reactive therewith and utilities thereof” (ELI LILLY AND COMPANY, priority 1992, dated 1994)
# Assays:
# HL60/S cells = test: IC50 of cells treated with drug (drug sensitivity); assay type: cell-based; settings: Homo sapiens, HL-60, do not express P-glycoprotein, read-out: IC₅₀
# HL60/Adr cells = test: IC50 of cells treated with drug (drug sensitivity); assay type: cell-based; settings: Homo sapiens; HL60/Adr cells (resistant to doxorubicin); express P190, no P-glycoprotein; read-out: IC₅₀
Structure (SMILES),IC50 (HL60/S cells),IC50 (HL60/Adr cells)
COc1cc([C@@H]2c3cc4c(cc3[C@@H](O[C@@H]3O[C@@H]5CO[C@@H](C)O[C@H]5[C@H](O)[C@H]3O)[C@H]3COC(=O)[C@H]23)OCO4)cc(OC)c1O [Etoposide],0.39 µg/mL,> 10 µg/mL
"COc1cccc2c1C(=O)c1c(O)c3c(c(O)c1C2=O)C[C@@](O)(C(=O)CO)C[C@@H]3O[C@H]1C[C@H](N)[C@H](O)[C@H](C)O1 [Adriamycin, Doxorubicin]",0.011 µg/mL,2.2 µg/mL
